# Experimental data from paper PMC9369442, “Synthetic Peucedanocoumarin IV Prevents α-Synuclein Neurotoxicity in an Animal Model of Parkinson’s Disease” (International Journal of Molecular Sciences, 2022).
# Read-outs that look alike come from different tables or passages of the source.
# Key:
# [1] = test system: 6-OHDA-induced PD mouse model; design: method as in PMID 31689937; details: cited from earlier work
# [2] = molecular target: T1, recombinant α-synuclein (Homo sapiens, UniProt P37840); test: In vitro recombinant α-synuclein aggregation, Western blot; assay type: biochemical; details: 100 μM, 37 °C, 3 or 5 days
# T1 construct: made in house; host or cells: Escherichia coli BL21
# Method: Figure 2 PCiv prevents α-synuclein aggregation in vitro and in cultured neurons with PFF treatment. (A) Representative Western blots showing the degree of recombinant α-synuclein (αSyn) aggregation in a test tube in the presence or absence of PCiv (100 μM) at the indicated incubation duration (phosphate-buffered saline [PBS], 37 °C for 3 or 5 days). Aggregation of α-synuclein was determined using α-synuclein antibody. (B) Quantification of the relative amount of α-synuclein aggregate in high molecular weight sizes in panel A (n = 3 per group). […] (D) Quantification of pS129-αSyn immunofluorescence signal intensities in MAP2-positive cortical neurons in each experimental group (n = 15 cells from three separate experiments). (E) Cell viability assessment in the indicated experimental groups was monitored by CCK-8 assay (n = 3 per group). The data are expressed as means ± SEMs. * p < 0.05, ** p < 0.01, *** p < 0.001, and **** p < 0.0001, ANOVA test followed by Tukey’s post hoc analysis. […]
# (A) Representative Western blots showing the degree of recombinant α-synuclein (αSyn) aggregation in a test tube in the presence or absence of t-Khellatone, PCiii, and PCiv (100 μM) at 0 and 5 days of incubation (phosphate-buffered saline [PBS], 37 °C for 5 days). Aggregation of α-synuclein was determined using α- synuclein antibody. […]
# [3] = Rat pharmacokinetics after intravenous and oral administration; assay type: in vivo; details: 10 mg/kg, rats
# Method: Figure 3 Pharmacokinetic analysis and tissue distribution of PCiv. (A) Pharmacokinetic analysis of blood PCiv levels at each indicated time point following intravenous or oral administration of PCiv (10 mg/kg) determined by ultra-performance liquid chromatography (n = 4 rats for oral and 5 rats for intravenous administration). (B) Quantification of PCiv levels in each indicated tissue (ng/g tissue weight) determined by ultra-performance liquid chromatography (n = 3 rats, tissues collected 15 min after intravenous PCiv administration (10 mg/kg). PCiv was dissolved in a vehicle (DMSO:PEG400:saline ratio of 5:70:25) for solubilization. The quantified data are expressed as means ± standard deviations.
# In vivo rat pharmacokinetic studies were performed for intravenous and oral administration of PCiv as previously reported. Sprague-Dawley rats (8 weeks old, 260–280 g) were purchased from Orient Bio Inc. (Seongnam, Korea). Rats were maintained with free access to food and water under a 12:12 h light/dark cycle for 1 week. For pharmacokinetic studies, under anesthetic conditions (20 mg/kg tiletamine/zolazepam [Zoletil; Vibrac Laboratories, Carros, France] administered intramuscularly), the femoral vein and artery were surgically cannulated using polyethylene tubing (PE50; Clay Adams, Parsippany, NJ, USA) in fasted rats. Then, PCiv was administered intravenously and orally at a dose of 10 mg/kg (n = 4–5). The drug was dissolved in a vehicle (DMSO:PEG400:saline at a ratio of 5:70:25). Blood samples (approximately 100 μL) were collected at predetermined time points (0, 1, 5 (intravenous administration only), 15, 30, 60, 120, 180, 240, 360, and 480 min) after drug administration. To prevent blood clots and fluid loss, the cannula to the femoral artery was flushed with 20 IU/mL heparinized saline, and the same volume of saline was pushed to the cannula for the femoral vein. The plasma fraction was immediately obtained after centrifugation at 14,000 rpm for 15 min at 4 °C and then stored at −20 °C prior to analysis using the ultra-high-performance liquid chromatography (UHPLC)-diode array detector (DAD) method. Similarly, a tissue distribution study was performed 15 min after the intravenous bolus injection (10 mg/kg), as previously described. Four major tissues, including tissues from the brain, heart, kidneys, and liver, were collected. Based on the wet weights of the tissue samples, a two-fold volume of PBS was added and homogenized. The tissue homogenates were stored at −20 °C before UHPLC-DAD analysis. The UHPLC-DAD system consisted of an Agilent Technologies 1290 Infinity II equipped with a DAD (G7117A), an autosampler (G71678B), a binary pump (G7104A), and a multicolumn thermostat (G7116B). The PCiv level was determined using a CapcellpakTM C18 5 μm column (250 × 1.5 mm, Shiseido Fine Chemical Co., Tokyo, Japan), as previously described. The mobile phase was composed of 0.1% phosphoric acid and acetonitrile and eluted in the gradient mode at a flow rate of 0.2 mL/min. A DAD detector was applied at 321 nm, with an injection volume of 10 μL. The calibration range was 20–10,000 ng/mL with good linearity (R = 0.99783 with 1/× weighting). The tissue concentration levels were calculated as the PCiv amount (ng) per gram of organ weight.
Structure (SMILES),neuroprotection [1],aggregation of recombinant α-synuclein into high molecular weight species [2],"half-life ([3]; Sprague-Dawley, rat, plasma, iv, intravenous, read-out: mean half-life) [h]","half-life ([3]; Sprague-Dawley, rat, plasma, po, oral administration, read-out: half-life) [h]","bioavailability ([3]; Sprague-Dawley, rat, plasma, po, oral, read-out: absolute bioavailability) [%]","Vd ([3]; Sprague-Dawley, rat, plasma, intravenous, read-out: mean steady-state volume of distribution) [L/kg]","clearance ([3]; Sprague-Dawley, rat, plasma, intravenous, read-out: mean systemic total clearance) [mL/min/kg]",absolute bioavailability ([3]; oral) [%],maximum concentration ([3]; oral)
"C/C=C(\C)C(=O)O[C@@H]1c2c(ccc3ccc(=O)oc23)OC(C)(C)[C@H]1OC(C)=O (relative stereo) [PCiii, peucedanocoumarin III]",neuroprotective,,,,,,,,
"C/C=C(\C)C(=O)O[C@H]1[C@H](OC(C)=O)c2c(ccc3ccc(=O)oc23)OC1(C)C (relative stereo) [PCiv, trans-4′-acetyl-3′-tigloylkhellactone]",,robustly blocked,1.43,~1.62,9.96,6.62,136,~10,low
